The target in series [1] is T1, PKG1β(h) (Homo sapiens, UniProt Q13976).
T1 construct: purchased Millipore (Kinase Profiler service, tested externally)
T1 sequence (Q13976 1-686 isoform Q13976-2): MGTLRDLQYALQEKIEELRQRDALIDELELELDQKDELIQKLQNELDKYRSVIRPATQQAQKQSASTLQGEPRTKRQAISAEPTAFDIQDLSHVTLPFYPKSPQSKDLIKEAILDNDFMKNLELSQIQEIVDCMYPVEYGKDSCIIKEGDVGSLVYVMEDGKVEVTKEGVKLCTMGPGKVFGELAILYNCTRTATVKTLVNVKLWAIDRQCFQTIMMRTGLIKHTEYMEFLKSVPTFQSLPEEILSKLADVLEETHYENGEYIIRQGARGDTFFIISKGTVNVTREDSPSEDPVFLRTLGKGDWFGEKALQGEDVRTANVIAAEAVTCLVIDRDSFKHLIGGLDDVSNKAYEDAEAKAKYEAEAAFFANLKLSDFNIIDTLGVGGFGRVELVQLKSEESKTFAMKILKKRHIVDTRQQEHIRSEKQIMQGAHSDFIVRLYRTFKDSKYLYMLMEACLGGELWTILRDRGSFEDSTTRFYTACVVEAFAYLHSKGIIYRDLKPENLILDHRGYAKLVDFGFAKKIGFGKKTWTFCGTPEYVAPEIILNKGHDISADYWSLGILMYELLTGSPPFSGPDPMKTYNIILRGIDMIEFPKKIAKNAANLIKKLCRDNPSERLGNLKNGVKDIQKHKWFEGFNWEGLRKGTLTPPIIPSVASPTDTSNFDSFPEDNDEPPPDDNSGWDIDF
The series can be described thus: Millipore Kinase Profiler assay, PKG1β(h). In kind it is biochemical.

Series [2] addresses PfPKG (Plasmodium falciparum, UniProt Q8I719). The series can be described thus: biochemical.
Series [3] can be described thus: mouse liver microsomal turnover. It is filed as in vitro ADME. Particulars: % remaining after 30 min incubation with mouse liver microsomes. The protocol: Microsomal turnover data was obtained using mouse liver microsomes (MLM) obtained from BD Biosciences. The compounds are pre-incubated at 37 °C for 5 minutes with the microsomes and the reaction was initiated by adding an equal volume of NADPH generating solution, also obtained from BD Biosciences. The final compound concentration in the incubation is 1 μM, and the microsomal protein concentration is 0.2 mg/mL. A sample is taken at t=0 and quenched with 2x volume of ice-cold methanol containing an internal standard reference compound (carbamazepine). The reaction is agitated at 37 °C for 30 minutes, when a further sample was taken and quenched in an identical fashion. The samples were centrifuged at 10000 rpm for 10 minutes and the supernatant taken for analysis in triplicate by LC-MS/MS (Agilent Technologies G6410 series, triple quadrupole with MM-ESI ion source) using optimised multiple reaction monitoring (MRM) scans and a standard column gradient on an Acquity UPLC BEH C8 1.7μm column, running acetonitrile and water with 0.05% acetic acid as the mobile phase. The % turnover is obtained by calculating the percentage difference of the peak areas, normalised to the internal standard, at t=0 and t=30. Verapamil is used as the standard compound for this assay.
For orientation: Liver microsomes are a subcellular fraction often used to study metabolism.

The subject of series [4] is human kinase panel. The series can be described thus: Kinase selectivity profiling against a human kinase panel. It is filed as biochemical. Particulars: single 1 µM concentration. Here is the method: [29] Kinase selectivity profiling was carried out at the MRC Protein Phosphorylation Unit at the University of Dundee, U.K. at a single concentration of 1 µM for all three compounds.

Series [5] in a line: Kinetic solubility. In kind it is physicochemical. The conditions noted are these: 90 min, pH 7.4. Here is the method: The kinetic solubility was measured by diluting a small amount of 10 mM DMSO stock into PBS pH7.4 in a filtration plate at a target concentration of 200 μM giving a final solution composition of 98:2 PBS:DMSO. Each compound was run in triplicate on the same plate with two standard compounds, verapamil and ketoconazole, included per plate. The filtration plate was shaken at 500 rpm for 90 minutes and then filtered under vacuum. The filtrate was sampled and diluted with a DMSO:PBS mixture in a flat bottomed UV plate to give a solution with a composition of PBS:DMSO 80:20. A dilution series for each compound was then created in flat bottomed UV plates in PBS:DMSO 80:20 with concentrations 200 μM, 100 μM, 50 μM, 25 μM, 12.5 μM & […]. The UV absorbance for these solutions was read across 230-400 nm at 1 nm intervals using a TECAN Safire II plate reader and a suitable UV wavelength chosen around the UV maximum of each compound.

Series [6] can be described thus: Measured logD (shake flask). It is filed as physicochemical. Particulars: octanol/PBS.
For series [7], the system named is Plasmodium falciparum. The series can be described thus: blood stage hypoxanthine incorporation (HXI) cell assay. It is filed as cell-based. Particulars: blood stage hypoxanthine incorporation cell assay, read-out: Pf HXI pEC50 (converted). From the text:
[21] Full details on biochemical assay and anti-malarial hypoxanthine incorporation (cell based) assay procedures can be found in reference 16.

For series [8], the target named is T2, PKG1α(h) (Homo sapiens, UniProt Q13976).
T2 construct: purchased Millipore (Kinase Profiler service, tested externally)
T2 sequence (Q13976 1-671): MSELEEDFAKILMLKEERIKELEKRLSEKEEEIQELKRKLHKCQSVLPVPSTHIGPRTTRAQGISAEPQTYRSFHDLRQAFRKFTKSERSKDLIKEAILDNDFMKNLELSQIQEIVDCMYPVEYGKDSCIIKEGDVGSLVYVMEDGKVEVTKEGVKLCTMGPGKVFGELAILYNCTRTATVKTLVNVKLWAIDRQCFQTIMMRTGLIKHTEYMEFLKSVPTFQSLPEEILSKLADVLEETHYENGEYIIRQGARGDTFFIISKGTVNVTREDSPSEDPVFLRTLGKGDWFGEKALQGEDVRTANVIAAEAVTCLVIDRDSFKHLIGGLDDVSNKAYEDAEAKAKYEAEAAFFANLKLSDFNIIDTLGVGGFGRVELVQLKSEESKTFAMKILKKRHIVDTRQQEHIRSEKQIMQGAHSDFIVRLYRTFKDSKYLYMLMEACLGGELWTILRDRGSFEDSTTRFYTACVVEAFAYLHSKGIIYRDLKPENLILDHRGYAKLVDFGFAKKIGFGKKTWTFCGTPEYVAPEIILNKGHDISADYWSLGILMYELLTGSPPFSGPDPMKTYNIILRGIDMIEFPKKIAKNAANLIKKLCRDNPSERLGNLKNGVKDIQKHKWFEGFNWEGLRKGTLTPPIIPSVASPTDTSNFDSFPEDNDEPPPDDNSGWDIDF
The series can be described thus: Millipore Kinase Profiler assay, PKG1α(h). In kind it is biochemical.

The test system of series [9] is HepG2 human liver-derived cells. The series can be described thus: in vitro cytotoxicity assay in HepG2 cells. It is filed as cell-based.
[10] abbreviates: up to a top assay concentration of 1 µM.

Sequence of PfPKG (Q8I719 whole entry): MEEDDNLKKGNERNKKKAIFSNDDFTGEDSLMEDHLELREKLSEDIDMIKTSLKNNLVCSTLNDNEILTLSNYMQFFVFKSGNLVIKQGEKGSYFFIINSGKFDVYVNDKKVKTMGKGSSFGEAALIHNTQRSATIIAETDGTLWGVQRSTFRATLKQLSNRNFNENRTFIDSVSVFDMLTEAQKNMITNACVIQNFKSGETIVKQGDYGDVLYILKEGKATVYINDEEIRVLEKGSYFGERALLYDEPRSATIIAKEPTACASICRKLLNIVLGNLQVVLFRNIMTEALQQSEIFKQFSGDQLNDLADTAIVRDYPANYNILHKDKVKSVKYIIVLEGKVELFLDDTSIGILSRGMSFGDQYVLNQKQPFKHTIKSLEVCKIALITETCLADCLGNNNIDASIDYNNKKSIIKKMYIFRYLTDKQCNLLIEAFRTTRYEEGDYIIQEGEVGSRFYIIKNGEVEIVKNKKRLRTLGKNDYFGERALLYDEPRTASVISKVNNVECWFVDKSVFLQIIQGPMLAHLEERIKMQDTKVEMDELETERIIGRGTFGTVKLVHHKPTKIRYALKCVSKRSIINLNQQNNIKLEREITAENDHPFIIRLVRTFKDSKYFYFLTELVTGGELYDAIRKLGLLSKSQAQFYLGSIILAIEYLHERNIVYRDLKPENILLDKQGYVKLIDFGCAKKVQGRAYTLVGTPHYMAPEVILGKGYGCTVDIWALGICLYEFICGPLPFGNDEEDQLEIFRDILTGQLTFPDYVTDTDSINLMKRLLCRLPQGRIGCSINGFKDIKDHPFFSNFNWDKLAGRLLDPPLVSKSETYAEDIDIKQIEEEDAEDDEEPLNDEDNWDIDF

Consider `CNc1nccc(-c2c(-c3ccc(F)cc3)nc3cc(NCCN(C)C)ccn23)n1` [Compound 27], for which the pIC50 in [1] (PKG1β(h)) and in series [8] (PKG1α(h)) was under 6 throughout. For the same compound, the “activity against human orthologue of PKG” value in series [1] (setting [10]) and in [8] (setting [10]) was “no activity” in each case. Also, in series [2] (PfPKG pIC50 minus measured logD), the “LLE (pIC50 – mLogD)” value came to 6.4. In series [2] (biochemical assay, read-out: PfPKG pIC50 (converted)), the IC50 was 2.75 nM. The MLM % rem in series [3] was 93%. Further, the “selectivity against human kinase panel (in words)” value in series [4] is given as “excellent selectivity profile”. In [5], this compound displayed a Kin sol of 207 µM. This compound also showed a mLogD in [6] of 2.2. For the same compound, the EC50 is 525 nM in series [7] and over 20000 nM in series [9] (Homo sapiens, HepG2, concentration at which half of cells remained viable at 48 h, read-out: HepG2 pEC50 (converted)). Also, the “in vitro cytotoxicity (in words)” value in series [9] is reported as “non-cytotoxic”.

In general, pIC50 refers to the negative decadic logarithm of the IC50, by convention in mol/L.

(Values after publication PMC6857626, “Potent bicyclic inhibitors of malarial cGMP-dependent protein kinase: approaches to combining improvements in cell potency, selectivity and structural novelty” (Bioorganic & Medicinal Chemistry Letters, 2019).)
